# “And” between values parts separate entries of the source, which are not always exact repeats. Equal entries are not always repeated. Where two headings read alike, the source gives them in different places.
# Biological target: T1, MRGPRX4 (Homo sapiens, UniProt Q96LA9)
# T1 construct: expressed in transfected cells; host or cells: HEK293T
# Assay: IP1 accumulation HTRF assay, MRGPRX4
# Format: cell-based
# Parameters: key to IP1 Basal / IP1 accumulation with YM (Figure 1c) / response to agonist, MRGPRX4 / IP1 accumulation: % IP1: unstimulated mock-transfected = 0%, fully stimulated MRGPRX4 = 100%
# Conditions: for IP1 accumulation: MRGPRX4 alone, Fig S3d-f
# Protocol: HEK293T cells were transfected with 1 pg/cell of MRGPRX4 DNA, and the amount of DNA was kept constant at 2 pg/cell with pcDNA3.1(+) empty vector, unless otherwise specified. Twenty four hours after transfection, IP1 assay was performed as previously described ([51]). When applicable, cells were treated with 1 μM YM254890 (YM) or different concentrations of U73122 for 1 h prior to addition of agonist or buffer. After incubation for 2 h, HTRF reagents and IP1 calibration standards were added and incubated for 2 h in the dark at room temperature. Time-resolved fluorescence signals were read on the BioTek Synergy NEO-TRF Hybrid multi-mode reader (BioTek Instruments). All data were carried out in three independent experiments with three technical replicate each.
# For characterization of the Tet-On Nluc-HT7-MRGPRX4-GFP10-1D4 construct, HEK293T cells were transfected as previously described with some modifications. Dox dose-response of NLuc-HT7-MRGPRX4-GFP10-1D4 DNA titration was assayed by transfecting HEK293T cells with either 1 or 2 pg/cell of NLuc-HT7-MRGPRX4-GFP10-1D4 construct. Receptor expression was induced 4 h after transfection with addition of different concentrations of dox for 20 h. For the RAMP DNA titration assay, cells were cotransfected with a constant amount of 1 pg/cell of NLuc-HT7-MRGPRX4-GFP10-1D4 DNA and 1, 0.75, 0.5, or 0 pg/cell of each HA-RAMP-OLLAS with the homogenous transfection method. Four hours after transfection, receptor expression was induced with addition of 1000 ng/ml dox. Twenty hours after induction, IP1 assay was performed.
# Data reduction, standard calibration, and transformation of HTRF data were performed as previously described ([51]). Normalized IP1 values were calculated relative to the unstimulated mock-transfected cells (set to 0%) and fully stimulated MRGPRX4 (alone if applicable) (set to 100%).
# T1 sequence (Q96LA9 whole entry): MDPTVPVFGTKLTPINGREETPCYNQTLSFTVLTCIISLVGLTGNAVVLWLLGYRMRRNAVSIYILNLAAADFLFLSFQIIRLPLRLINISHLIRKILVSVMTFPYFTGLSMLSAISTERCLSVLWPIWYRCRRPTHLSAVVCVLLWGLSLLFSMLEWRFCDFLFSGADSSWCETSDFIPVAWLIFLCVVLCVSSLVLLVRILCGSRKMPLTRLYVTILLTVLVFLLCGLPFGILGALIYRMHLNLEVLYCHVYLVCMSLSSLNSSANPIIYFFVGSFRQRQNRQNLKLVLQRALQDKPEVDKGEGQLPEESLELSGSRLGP
structure (smiles),measurement,setting,value
"C[C@H](CCC(=O)O)[C@H]1CC[C@H]2[C@@H]3CC[C@@H]4C[C@H](O)CC[C@]4(C)[C@H]3C[C@H](O)[C@]12C [DCA, deoxycholic acid]",efficacy,"Figure 4a bottom, MRGPRX4 alone (reference = 100), individual replicates",100
same,Emax,"Figure 4a bottom, MRGPRX4 alone (reference = 100), individual replicates, read-out: efficacy",100%
same,"response to agonist, MRGPRX4","Figure 4c-f, agonist 100µM, MRGPRX4 alone (reference = 100)",100
same,normalized IP1 accumulation,"HA-MRGX4-1D4, log [agonist] (M) -4",58.1095 and 47.3107
same,normalized IP1 accumulation,"HA-MRGX4-1D4, log [agonist] (M) -4.69897",33.2327 and 34.6328
same,normalized IP1 accumulation,"HA-MRGX4-1D4, log [agonist] (M) -5.39794",18.9895
same,normalized IP1 accumulation,"HA-MRGX4-1D4, log [agonist] (M) -6.09691",13.2757 and 15.4467
same,normalized IP1 accumulation,"HA-MRGX4-1D4, log [agonist] (M) -6.79588",13.3916 and 13.9578
same,normalized IP1 accumulation,"HA-MRGX4-1D4, log [agonist] (M) -7.49485",12.579 and 14.4894
same,Emax,"HEK-293T, MRGPRX4 (Fig. 1A), HEK293T, normalized to 100 μM nateglinide, read-out: IP1 Emax",77.9%
same,Emax,"HEK-293T, MRGPRX4 (Fig. 1A), HEK293T, normalized to 100 μM nateglinide, read-out: IP1 span",62.9%
same,Emax,"MRGPRX4 0.125 pg DNA/cell, individual experiments, read-out: efficacy (Figure 1b bottom)",47.9%
same,Emax,"MRGPRX4 0.25 pg DNA/cell, individual experiments, read-out: efficacy (Figure 1b bottom)",45%
same,Emax,"MRGPRX4 0.5 pg DNA/cell, individual experiments, read-out: efficacy (Figure 1b bottom)",58.3%
same,Emax,"MRGPRX4 1 pg DNA/cell, individual experiments, read-out: efficacy (Figure 1b bottom)",70.6%
same,Emax,"MRGPRX4 2 pg DNA/cell, individual experiments, read-out: efficacy (Figure 1b bottom)",80.7%
same,IP1 Basal,"MRGPRX4 (Fig. 1A), HEK293T, normalized to 100 μM nateglinide",15.03
same,IP1 Basal,MRGPRX4 DNA 0.25 pg/cell (Fig. S1),4.249
same,Emax,"MRGPRX4 DNA 0.25 pg/cell (Fig. S1), read-out: IP1 Emax",54.2%
same,Emax,"MRGPRX4 DNA 0.25 pg/cell (Fig. S1), read-out: IP1 span",50%
same,IP1 Basal,MRGPRX4 DNA 0.5 pg/cell (Fig. S1),6.783
same,Emax,"MRGPRX4 DNA 0.5 pg/cell (Fig. S1), read-out: IP1 Emax",68%
same,Emax,"MRGPRX4 DNA 0.5 pg/cell (Fig. S1), read-out: IP1 span",61.2%
same,IP1 Basal,MRGPRX4 DNA 1 pg/cell (Fig. S1),9.471
same,Emax,"MRGPRX4 DNA 1 pg/cell (Fig. S1), read-out: IP1 Emax",73.8%
same,Emax,"MRGPRX4 DNA 1 pg/cell (Fig. S1), read-out: IP1 span",64.3%
same,IP1 Basal,MRGPRX4 DNA 2 pg/cell (Fig. S1),12.99
same,Emax,"MRGPRX4 DNA 2 pg/cell (Fig. S1), read-out: IP1 Emax",87.2%
same,Emax,"MRGPRX4 DNA 2 pg/cell (Fig. S1), read-out: IP1 span",74.2%
same,Emax,"MRGPRX4 DNA […] (Fig. S1), read-out: IP1 Emax",50.3%
same,Emax,"MRGPRX4 DNA […] (Fig. S1), read-out: IP1 span",47%
same,IP1 accumulation,log [DCA] (M) -4.69897,57.1868 and 75.4734
same,IP1 accumulation,log [DCA] (M) -5.39794,30.3386
same,IP1 accumulation,log [DCA] (M) -6.09691,23.4514 and 33.1858
same,IP1 accumulation,log [DCA] (M) -6.79588,21.3567 and 30.9234
same,IP1 accumulation,log [DCA] (M) -7.49485,19.4869 and 27.2792
same,normalized IP1 accumulation,"SP-FLAG-Nluc-HT7-MRGX4_Tet-GFP10-1D4, log [agonist] (M) -4.09691",41.457 and 40.0931
same,normalized IP1 accumulation,"SP-FLAG-Nluc-HT7-MRGX4_Tet-GFP10-1D4, log [agonist] (M) -4.79588",23.5519 and 24.4487
same,normalized IP1 accumulation,"SP-FLAG-Nluc-HT7-MRGX4_Tet-GFP10-1D4, log [agonist] (M) -5.49485",12.8144 and 13.3904
same,normalized IP1 accumulation,"SP-FLAG-Nluc-HT7-MRGX4_Tet-GFP10-1D4, log [agonist] (M) -6.19382",11.7164 and 10.0407
same,normalized IP1 accumulation,"SP-FLAG-Nluc-HT7-MRGX4_Tet-GFP10-1D4, log [agonist] (M) -6.89279",9.829 and 11.4364
same,normalized IP1 accumulation,"SP-FLAG-Nluc-HT7-MRGX4_Tet-GFP10-1D4, log [agonist] (M) -7.59176",10.7139 and 10.5391
same,normalized IP1 accumulation,"SP-FLAG-Nluc-HT7-MRGX4_Tet-GFP10-1D4 no dox, log [agonist] (M) -4.09691",9.638 and 9.7
same,normalized IP1 accumulation,"SP-FLAG-Nluc-HT7-MRGX4_Tet-GFP10-1D4 no dox, log [agonist] (M) -4.79588",7.503 and 8.174
same,normalized IP1 accumulation,"SP-FLAG-Nluc-HT7-MRGX4_Tet-GFP10-1D4 no dox, log [agonist] (M) -5.49485",9.457 and 8.365
same,normalized IP1 accumulation,"SP-FLAG-Nluc-HT7-MRGX4_Tet-GFP10-1D4 no dox, log [agonist] (M) -6.19382",8.686 and 8.091
same,normalized IP1 accumulation,"SP-FLAG-Nluc-HT7-MRGX4_Tet-GFP10-1D4 no dox, log [agonist] (M) -6.89279",8.749 and 8.325
same,normalized IP1 accumulation,"SP-FLAG-Nluc-HT7-MRGX4_Tet-GFP10-1D4 no dox, log [agonist] (M) -7.59176",8.705 and 9.2498
same,normalized IP1 accumulation,"SP-Flag-MRGX4-1D4, log [agonist] (M) -4",68.6268 and 66.4742
same,normalized IP1 accumulation,"SP-Flag-MRGX4-1D4, log [agonist] (M) -4.69897",30.127 and 33.8796
same,normalized IP1 accumulation,"SP-Flag-MRGX4-1D4, log [agonist] (M) -5.39794",14.3992 and 13.1143
same,normalized IP1 accumulation,"SP-Flag-MRGX4-1D4, log [agonist] (M) -6.09691",8.224 and 9.664
same,normalized IP1 accumulation,"SP-Flag-MRGX4-1D4, log [agonist] (M) -6.79588",7.099 and 7.695
same,normalized IP1 accumulation,"SP-Flag-MRGX4-1D4, log [agonist] (M) -7.49485",6.315 and 7.555
same,normalized IP1 accumulation,"SP-Flag-MRGX4-GFP10-1D4, log [agonist] (M) -4",68.4519 and 65.3389
same,normalized IP1 accumulation,"SP-Flag-MRGX4-GFP10-1D4, log [agonist] (M) -4.69897",36.0479 and 38.0394
same,normalized IP1 accumulation,"SP-Flag-MRGX4-GFP10-1D4, log [agonist] (M) -6.09691",10.072 and 10.3886
same,normalized IP1 accumulation,"SP-Flag-MRGX4-GFP10-1D4, log [agonist] (M) -6.79588",8.9869 and 9.025
same,normalized IP1 accumulation,"SP-Flag-MRGX4-GFP10-1D4, log [agonist] (M) -7.49485",7.933 and 9.527
same,IP1 Basal,construct FLAG-MRGPRX4-1D4 (Fig. S4A-F),7.469
same,Emax,"construct FLAG-MRGPRX4-1D4 (Fig. S4A-F), read-out: IP1 Emax",96.3%
same,Emax,"construct FLAG-MRGPRX4-1D4 (Fig. S4A-F), read-out: IP1 span",88.8%
same,IP1 Basal,construct FLAG-MRGPRX4-GFP10-1D4 (Fig. S4A-F),8.165
same,Emax,"construct FLAG-MRGPRX4-GFP10-1D4 (Fig. S4A-F), read-out: IP1 Emax",88.5%
same,Emax,"construct FLAG-MRGPRX4-GFP10-1D4 (Fig. S4A-F), read-out: IP1 span",80.4%
same,IP1 Basal,construct FLAG-NLuc-HT7-MRGPRX4-GFP10-1D4 (Fig. S4A-F),10.56
same,Emax,"construct FLAG-NLuc-HT7-MRGPRX4-GFP10-1D4 (Fig. S4A-F), read-out: IP1 Emax",55%
same,Emax,"construct FLAG-NLuc-HT7-MRGPRX4-GFP10-1D4 (Fig. S4A-F), read-out: IP1 span",44.5%
same,IP1 Basal,construct HA-MRGPRX4-1D4 (Fig. S4A-F),12.52
same,Emax,"construct HA-MRGPRX4-1D4 (Fig. S4A-F), read-out: IP1 Emax",64.7%
same,Emax,"construct HA-MRGPRX4-1D4 (Fig. S4A-F), read-out: IP1 span",52.2%

# — publication PMC10165273, “Itch receptor MRGPRX4 interacts with the receptor activity–modifying proteins” (The Journal of Biological Chemistry, 2023)
